≈ marks a conversion by molar mass, not a printed value.
What was measured:
[1] = Antioxidant activity assessed as DPPH radical scavenging activity relative to control; assay type: functional; parameters: concentration or dose not given beside the values
[2] = Inhibition of CDK5/p25 (unknown origin); parameters: species or system Homo sapiens
MES-SA = assay: Antiproliferative activity against human MES-SA cells assessed as cell growth inhibition; assay type: functional, cell-based
MES-SA/Dx5 = assay: Antiproliferative activity against human MES-SA/Dx5 cells assessed as cell growth inhibition; assay type: functional, cell-based
[3] = Antioxidant activity assessed as ABTS radical scavenging activity; assay type: functional
Tubulin = assay: Inhibition of tubulin (unknown origin); assay type: protein-complex assay, Homo sapiens
HL-60 = assay: Antiproliferative activity against human HL-60 cells assessed as cell growth inhibition; assay type: functional, cell-based
HT-29 = assay: Antiproliferative activity against human HT-29 cells assessed as cell growth inhibition; assay type: functional, cell-based
[4] = target: T1, Nitric oxide synthase, inducible (Mus musculus, UniProt P29477); assay: Inhibition of iNOS expression in LPS-induced mouse RAW264.7 cells; assay type: cell-based
T1 sequence (P29477 whole entry): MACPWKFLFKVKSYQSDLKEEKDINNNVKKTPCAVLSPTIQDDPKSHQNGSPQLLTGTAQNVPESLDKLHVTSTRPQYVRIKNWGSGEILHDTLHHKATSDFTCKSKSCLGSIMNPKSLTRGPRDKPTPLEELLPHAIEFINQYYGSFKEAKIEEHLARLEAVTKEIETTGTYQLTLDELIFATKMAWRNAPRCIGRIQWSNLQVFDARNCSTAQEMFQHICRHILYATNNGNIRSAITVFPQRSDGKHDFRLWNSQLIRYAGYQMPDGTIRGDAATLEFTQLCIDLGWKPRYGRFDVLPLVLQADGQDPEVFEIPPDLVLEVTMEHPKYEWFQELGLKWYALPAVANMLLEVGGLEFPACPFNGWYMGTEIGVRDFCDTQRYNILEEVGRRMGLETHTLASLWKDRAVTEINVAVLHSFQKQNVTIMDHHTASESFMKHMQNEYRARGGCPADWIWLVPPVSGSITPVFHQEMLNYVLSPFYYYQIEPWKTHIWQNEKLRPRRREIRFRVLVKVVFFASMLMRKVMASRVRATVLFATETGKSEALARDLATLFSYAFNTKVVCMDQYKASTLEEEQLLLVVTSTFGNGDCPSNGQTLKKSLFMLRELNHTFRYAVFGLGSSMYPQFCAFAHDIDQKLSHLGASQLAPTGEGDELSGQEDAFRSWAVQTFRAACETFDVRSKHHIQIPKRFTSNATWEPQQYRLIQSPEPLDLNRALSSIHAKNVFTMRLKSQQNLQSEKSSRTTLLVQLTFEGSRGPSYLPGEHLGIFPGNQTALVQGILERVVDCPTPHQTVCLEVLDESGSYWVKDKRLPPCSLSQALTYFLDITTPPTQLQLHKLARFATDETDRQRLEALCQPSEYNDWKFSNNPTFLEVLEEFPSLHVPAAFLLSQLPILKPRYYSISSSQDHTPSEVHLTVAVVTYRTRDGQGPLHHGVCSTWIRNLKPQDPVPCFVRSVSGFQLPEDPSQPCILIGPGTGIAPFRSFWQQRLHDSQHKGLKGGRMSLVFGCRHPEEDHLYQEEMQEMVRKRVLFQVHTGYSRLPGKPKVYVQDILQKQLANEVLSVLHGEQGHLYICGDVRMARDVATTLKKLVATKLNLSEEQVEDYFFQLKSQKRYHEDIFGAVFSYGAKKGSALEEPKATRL

[5] = test system: Mycobacterium tuberculosis; assay: Antimycobacterial activity against Mycobacterium tuberculosis; assay type: functional
[6] = Antioxidant activity assessed as DPPH radical scavenging activity; assay type: functional
Maltase-glucoamylase = Maltase-glucoamylase (Homo sapiens, UniProt O43451); assay: Inhibition of alpha-glucosidase (unknown origin)
Maltase-glucoamylase, sequence (O43451 whole entry): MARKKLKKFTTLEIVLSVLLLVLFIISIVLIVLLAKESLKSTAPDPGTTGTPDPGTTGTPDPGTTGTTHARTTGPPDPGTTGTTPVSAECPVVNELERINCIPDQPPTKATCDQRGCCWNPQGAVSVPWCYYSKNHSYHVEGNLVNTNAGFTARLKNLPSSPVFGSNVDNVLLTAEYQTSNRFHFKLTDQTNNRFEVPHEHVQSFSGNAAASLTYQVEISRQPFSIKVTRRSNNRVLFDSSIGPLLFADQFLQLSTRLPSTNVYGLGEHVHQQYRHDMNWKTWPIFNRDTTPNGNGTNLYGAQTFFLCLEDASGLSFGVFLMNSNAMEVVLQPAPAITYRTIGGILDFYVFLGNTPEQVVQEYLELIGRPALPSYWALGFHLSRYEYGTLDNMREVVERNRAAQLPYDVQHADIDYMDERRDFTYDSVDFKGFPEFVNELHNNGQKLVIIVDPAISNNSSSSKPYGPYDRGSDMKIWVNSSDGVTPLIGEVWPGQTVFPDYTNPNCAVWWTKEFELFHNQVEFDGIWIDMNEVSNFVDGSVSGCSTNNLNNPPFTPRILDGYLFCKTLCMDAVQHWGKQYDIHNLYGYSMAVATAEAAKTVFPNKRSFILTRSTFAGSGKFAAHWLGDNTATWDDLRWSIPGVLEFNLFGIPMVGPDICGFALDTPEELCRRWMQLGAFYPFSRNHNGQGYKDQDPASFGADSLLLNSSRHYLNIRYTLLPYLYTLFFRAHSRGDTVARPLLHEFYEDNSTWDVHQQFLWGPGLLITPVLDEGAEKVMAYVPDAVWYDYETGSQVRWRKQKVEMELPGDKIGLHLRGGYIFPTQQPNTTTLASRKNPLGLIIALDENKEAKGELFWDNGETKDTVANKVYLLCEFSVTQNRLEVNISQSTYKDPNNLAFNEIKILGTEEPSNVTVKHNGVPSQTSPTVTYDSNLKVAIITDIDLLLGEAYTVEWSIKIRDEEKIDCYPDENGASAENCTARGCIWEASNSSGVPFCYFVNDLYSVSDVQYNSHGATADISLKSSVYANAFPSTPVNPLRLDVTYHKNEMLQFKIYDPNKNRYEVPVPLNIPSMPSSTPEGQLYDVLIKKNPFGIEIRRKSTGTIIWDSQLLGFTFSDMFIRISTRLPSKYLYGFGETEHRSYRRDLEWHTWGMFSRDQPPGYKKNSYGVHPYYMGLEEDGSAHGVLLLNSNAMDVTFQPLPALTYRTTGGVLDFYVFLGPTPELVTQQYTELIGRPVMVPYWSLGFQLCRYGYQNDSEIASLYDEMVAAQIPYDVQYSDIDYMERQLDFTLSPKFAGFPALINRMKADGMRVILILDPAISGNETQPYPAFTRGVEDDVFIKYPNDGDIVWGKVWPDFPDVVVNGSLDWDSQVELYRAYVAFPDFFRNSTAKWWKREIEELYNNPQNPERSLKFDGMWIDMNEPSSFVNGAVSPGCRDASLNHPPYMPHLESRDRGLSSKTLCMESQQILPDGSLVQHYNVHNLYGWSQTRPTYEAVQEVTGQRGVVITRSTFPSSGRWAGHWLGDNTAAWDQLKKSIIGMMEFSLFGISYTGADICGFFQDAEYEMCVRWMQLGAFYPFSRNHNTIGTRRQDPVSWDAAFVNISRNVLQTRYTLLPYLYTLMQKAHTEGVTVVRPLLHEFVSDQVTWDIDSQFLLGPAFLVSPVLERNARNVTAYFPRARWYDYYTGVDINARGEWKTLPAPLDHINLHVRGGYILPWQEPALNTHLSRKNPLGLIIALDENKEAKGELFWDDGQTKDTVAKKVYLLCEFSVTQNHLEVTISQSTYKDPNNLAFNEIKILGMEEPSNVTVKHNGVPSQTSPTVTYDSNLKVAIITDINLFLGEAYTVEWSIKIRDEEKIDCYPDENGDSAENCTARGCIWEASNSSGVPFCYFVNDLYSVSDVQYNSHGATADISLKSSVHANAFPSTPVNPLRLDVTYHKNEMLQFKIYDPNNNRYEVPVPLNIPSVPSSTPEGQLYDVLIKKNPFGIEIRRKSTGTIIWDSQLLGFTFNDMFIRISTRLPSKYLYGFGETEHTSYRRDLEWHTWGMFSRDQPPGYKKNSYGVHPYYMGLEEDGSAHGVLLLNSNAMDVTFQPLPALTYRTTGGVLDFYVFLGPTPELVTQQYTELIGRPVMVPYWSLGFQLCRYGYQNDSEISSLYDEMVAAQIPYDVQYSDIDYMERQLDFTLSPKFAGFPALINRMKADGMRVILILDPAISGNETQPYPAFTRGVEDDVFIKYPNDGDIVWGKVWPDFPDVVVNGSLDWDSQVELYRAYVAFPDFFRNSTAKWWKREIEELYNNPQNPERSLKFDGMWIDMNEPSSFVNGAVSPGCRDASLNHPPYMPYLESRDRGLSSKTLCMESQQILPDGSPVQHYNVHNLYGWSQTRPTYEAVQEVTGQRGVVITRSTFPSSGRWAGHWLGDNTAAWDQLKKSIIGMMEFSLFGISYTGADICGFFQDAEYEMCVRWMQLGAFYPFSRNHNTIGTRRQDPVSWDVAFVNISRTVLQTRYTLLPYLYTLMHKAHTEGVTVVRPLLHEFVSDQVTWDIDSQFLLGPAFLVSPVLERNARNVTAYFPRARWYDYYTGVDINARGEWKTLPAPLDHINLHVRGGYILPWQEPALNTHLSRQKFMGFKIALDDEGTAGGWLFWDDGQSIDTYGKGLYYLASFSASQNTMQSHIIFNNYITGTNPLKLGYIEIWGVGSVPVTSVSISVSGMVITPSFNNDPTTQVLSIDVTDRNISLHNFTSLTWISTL

K562 = assay: Antiproliferative activity against human K562 cells assessed as cell growth inhibition at 10 uM relative to control; assay type: functional, cell-based
MDA-MB-435 = assay: Antiproliferative activity against human MDA-MB-435 cells assessed as cell growth inhibition at 10 uM relative to control; assay type: functional, cell-based
Candida albicans = assay: Antifungal activity against Candida albicans assessed as inhibition of fungal growth; assay type: functional
Bacillus subtilis = assay: Antimicrobial activity against Bacillus subtilis assessed as inhibition of bacterial growth; assay type: functional
Staphylococcus aureus = assay: Antimicrobial activity against Staphylococcus aureus assessed as inhibition of bacterial growth; assay type: functional
Plasmodium falciparum [7] = assay: Antiplasmodial activity against Plasmodium falciparum D6; assay type: functional, organism-based
Plasmodium falciparum [8] = assay: Antiplasmodial activity against Plasmodium falciparum 3D7; assay type: functional, organism-based
Plasmodium falciparum [9] = assay: Antiplasmodial activity against Plasmodium falciparum W2; assay type: functional, organism-based
[10] = test system: Mycolicibacterium smegmatis; assay: Anti-mycobacterial activity against Mycobacterium smegmatis assessed as inhibition of bacterial growth; assay type: functional
Fusarium oxysporum = assay: Antifungal activity against Fusarium oxysporum assessed as inhibition of fungal growth; assay type: functional

COc1ccc2c(c1OC)O/C(=C\c1ccc(O)c(O)c1)C2=O
Activity [1]: 85.8%

O=C1/C(=C/c2ccc(O)c(O)c2)Oc2cc(O)cc(O)c21 [AUREUSIDIN]
IC50 [2]: 4.81 µM

COc1cc2c(c(OC)c1)C(=O)/C(=C/c1c(C)c(C)cc(C)c1C)N2
IC50 (MES-SA): 9.2 µM
IC50 (MES-SA/Dx5): 19.5 µM

COc1cc(OC)c(C2=CCN(Cc3ccccc3)CC2)c2c1C(=O)/C(=C/c1ccc(F)cc1)O2
IC50 [3]: 71.7 µM

CCn1cc(/C=C2\Oc3cc(OCC#N)cc(O)c3C2=O)c2cc(OC)ccc21
IC50 (Tubulin): 58.6 µM

C=CCOc1ccc2c(c1)O/C(=C\c1ccc(C(F)(F)F)cc1)C2=O
IC50 (HL-60): 3.53 µM
IC50 (HT-29): 4.12 µM

CC1(C)CCc2c(ccc3c2O/C(=C\c2ccc(O)c(O)c2)C3=O)O1
IC50 [4]: 8.09 µM

CC(=O)N1/C(=C\c2ccc(Br)cc2)C(=O)c2ccccc21
MIC99 [5]: 0.37 µM (≈ 0.127 µg/mL)

O=C1/C(=C/c2ccc(Cl)cc2)Oc2ccccc21
IC50 [6]: 92 µM

COc1ccc2c(c1)O/C(=C\c1ccc(C(F)(F)F)cc1)C2=O
IC50 (HL-60): 2.59 µM
IC50 (HT-29): 5.9 µM

CC(=O)N1/C(=C\c2ccc(-c3ccsc3)cc2)C(=O)c2ccccc21
MIC99 [5]: 0.6 µM (≈ 0.207 µg/mL)

COc1cc2c(c(OC)c1)C(=O)/C(=C/c1ccc(C(C)C)cc1)N2
IC50 (MES-SA): 17.1 µM
IC50 (MES-SA/Dx5): 5.8 µM

CCCCCCCOc1ccc2c(c1)O/C(=C\c1ccc(C(F)(F)F)cc1)C2=O
IC50 (HL-60): 2.67 µM
IC50 (HT-29): 4.32 µM

CC1(C)CCc2c(ccc3c2O/C(=C\c2ccccc2)C3=O)O1
IC50 [4]: 12.2 µM

COc1ccc2c(c1)O/C(=C\c1cc(O)ccc1O)C2=O
IC50 [6]: 35.9 µM

O=C1c2ccccc2OC1(O)Cc1ccc(Cl)cc1 (centres undefined)
IC50 [6]: 54 µM

COc1cc(/C=C2\Oc3c(ccc(O)c3OC)C2=O)ccc1O
Activity [1]: 47.4%

CC(=O)N1/C(=C\c2ccc(-c3cncc4ccccc34)cc2)C(=O)c2ccccc21
MIC99 [5]: 0.74 µM (≈ 0.289 µg/mL)

CC1(C)CCc2c(ccc3c2O/C(=C\c2cccc(O)c2)C3=O)O1
IC50 [4]: 10.8 µM

COc1cc(/C=C2\Oc3c(ccc(OC)c3OC)C2=O)ccc1O
Activity [1]: 32.8%

CC(C)=CCc1c(O)ccc2c1O/C(=C\c1ccc(O)cc1)C2=O
IC50 (Maltase-glucoamylase): 73.8 µM

C#Cc1cccc(Nc2ncnc3cc(OCCOC)c(OCCOC)cc23)c1 [ERLOTINIB]
IC50 (K562): 3.29 µM
IC50 (MDA-MB-435): 7.05 µM

Cc1ccc(/C=C2\Oc3c(ccc4c3CCC(C)(C)O4)C2=O)o1
IC50 [4]: 11.9 µM

COc1cc2c(c(OC)c1)C(=O)/C(=C/c1ccc(C(C)(C)C)cc1)N2
IC50 (MES-SA): 11.9 µM
IC50 (MES-SA/Dx5): 3.4 µM

CCOc1ccc2c(c1)O/C(=C\c1ccc(C(F)(F)F)cc1)C2=O
IC50 (HL-60): 1.65 µM
IC50 (HT-29): 9.12 µM

O=C1/C(=C/c2ccc(C(F)(F)F)cc2)Oc2cc(O)ccc21
IC50 (HL-60): 1.54 µM
IC50 (HT-29): 8.9 µM

O=C1/C(=C/c2cc3cc(Br)ccc3nc2Cl)Oc2cc(O)cc(O)c21
MIC (Candida albicans): 78 mg/L (≈ 186 µM)
MIC (Bacillus subtilis): 313 mg/L (≈ 748 µM)
MIC (Staphylococcus aureus): 1250 mg/L (≈ 2990 µM)

COc1cc(/C=C2\Oc3cc4occc4c(OC)c3C2=O)ccc1OCC(=O)Nc1ccccc1
inhibition of growth at 10 µM (K562; dose 10 µM, read-out: GI): 70.3%
IC50 (MDA-MB-435): 7.05 µM
inhibition of growth at 10 µM (MDA-MB-435; dose 10 µM, read-out: GI): 79.6%

COc1cc(/C=C2\Oc3c(ccc4c3CCC(C)(C)O4)C2=O)ccc1O
IC50 [4]: 5.22 µM

COc1cc(OC)c2c(c1)O/C(=C\c1ccc(OC)c(OC)c1)C2=O [4,6,3',4'-TETRAMETHOXYAURONE]
IC50 (Plasmodium falciparum [7]): 13.9 µM
IC50 (Plasmodium falciparum [8]): 7.82 µM
IC50 (Plasmodium falciparum [9]): 13.9 µM

CC1(C)CCc2c(ccc3c2O/C(=C\c2ccccn2)C3=O)O1
IC50 [4]: 8.41 µM

CCCOc1c(Br)cc(/C=C2\Oc3cc(OC)cc(OC)c3C2=O)cc1OC
IC50 (Plasmodium falciparum [8]): 2.3 µM

CCOc1c(Br)cc(/C=C2\Oc3cc(OC)cc(OC)c3C2=O)cc1OC
IC50 (Plasmodium falciparum [8]): 7.27 µM

O=C1/C(=C/c2ccncc2)Oc2cc(OCc3c(Cl)cccc3Cl)ccc21
IC50 (Tubulin): 66 µM

O=C1/C(=C/c2ccc(C(F)(F)F)cc2)Oc2cc(OCc3ccccc3)ccc21
IC50 (HL-60): 3.46 µM
IC50 (HT-29): 4.12 µM

O=C1/C(=C/c2cc3ccccc3nc2Cl)Oc2cc(O)cc(O)c21
MIC [10]: 625 mg/L (≈ 1840 µM)
MIC (Fusarium oxysporum): 625 mg/L (≈ 1840 µM)
MIC (Bacillus subtilis): 20 mg/L (≈ 58.9 µM)
MIC (Staphylococcus aureus): 1250 mg/L (≈ 3680 µM)

COc1cc(OC)c2c(c1)O/C(=C\c1ccccc1)C2=O
IC50 (Plasmodium falciparum [7]): 16.9 µM
IC50 (Plasmodium falciparum [9]): 16.9 µM

COc1cc(OC)c(C2=CCN(Cc3ccccc3)CC2)c2c1C(=O)/C(=C/c1ccc(Br)cc1)O2
IC50 [3]: 87 µM

CCCCc1ccc(/C=C2\Nc3cc(OC)cc(OC)c3C2=O)cc1
IC50 (MES-SA): 17.8 µM
IC50 (MES-SA/Dx5): 3.7 µM

COc1c(O)ccc2c1O/C(=C\c1ccc(O)c(O)c1)C2=O
Activity [1]: 84.2%

Cc1ccc2cc(/C=C3\Oc4cc(O)cc(O)c4C3=O)c(Cl)nc2c1C
MIC (Bacillus subtilis): 625 mg/L (≈ 1700 µM)
MIC (Staphylococcus aureus): 1250 mg/L (≈ 3400 µM)

COc1ccc(/C=C2\Oc3c(ccc(OC)c3OC)C2=O)cc1O
Activity [1]: 8.9%

Cc1cc(C)c2cc(/C=C3\Oc4cc(O)cc(O)c4C3=O)c(Cl)nc2c1
MIC [10]: 78 mg/L (≈ 212 µM)
MIC (Fusarium oxysporum): 313 mg/L (≈ 851 µM)
MIC (Candida albicans): 156 mg/L (≈ 424 µM)
MIC (Bacillus subtilis): 156 mg/L (≈ 424 µM)
MIC (Staphylococcus aureus): 2500 mg/L (≈ 6800 µM)

From ChEMBL document CHEMBL5223077, “Recent advances on synthesis and biological activities of aurones” (Bioorg Med Chem, 2021)
